# According to patent US11135252B2, “Probiotic therapies for developmental disorders and other neurological disorders” (Baylor College of Medicine, priority 2016, dated 2021):
# Columns and labels:
# Cntnap2-deficient mice = experiment: Social behavior (sociability, social novelty) in Cntnap2-deficient mice; format: in vivo
# Experimental: Crawley's three-chamber test for sociability and preference for social novelty was performed as described (Silverman et al., 2010). In brief, the mouse first experienced a 10-minute period of habituation during which it was allowed to freely explore a 60×40×23 cm Plexiglass arena divided into three equally sized, interconnected chambers (Left, Center, Right). Sociability was measured during a second ten-minute period in which the subject could interact either with an empty wire cup (Empty) or a wire cup containing an age and sex-matched stranger conspecific (Mouse 1). Time spent interacting (sniffing, crawling upon) with either the empty cup or the stranger mouse contained in the other cup as well as time spent in each chamber was recorded using the AnyMaze software, by independent observers. Empty cup placement in the Left or Right chamber during the Sociability period was counterbalanced between trials. Finally, preference for social novelty was assayed by introducing a second stranger mouse (Mouse 2) into the previously the empty wire cup. Time spent in each chamber as well as time spent interacting with either Mouse 1 or Mouse 2 was recorded using the automated AnyMaze software by independent observers.
# To examine whether treatment with L. reuteri could restore ASD-like behaviors in genetic models of ASD, we studied mice lacking contactin associated protein-like 2 (CNTNAP2). Mutations in CNTNAP2 have been associated with syndromic forms of ASD (Nascimento, et al., 2016; Yoo, et al., 2017; Zare, et al., 2017; el-Sobky, et al., 2004; Alarcon, et al., 2008; Sampath, et al., 2013; Chiocchetti, et al., 2015), thereby serving as a genetic model of autism in mice. Second, mice lacking Cntnap2 show ASD-like behaviors (Penagarikano, et al.).
# MRD offspring = experiment: Three-chamber social test in MRD offspring; format: in vivo, mice; settings: in drinking water
# Experimental: Crawley's three-chamber test for sociability and preference for social novelty was performed as described (Silverman et al., 2010). In brief, the mouse first experienced a 10-minute period of habituation during which it was allowed to freely explore a 60×40×23 cm Plexiglass arena divided into three equally sized, interconnected chambers (Left, Center, Right). Sociability was measured during a second ten-minute period in which the subject could interact either with an empty wire cup (Empty) or a wire cup containing an age and sex-matched stranger conspecific (Mouse 1). Time spent interacting (sniffing, crawling upon) with either the empty cup or the stranger mouse contained in the other cup as well as time spent in each chamber was recorded using the AnyMaze software, by independent observers. Empty cup placement in the Left or Right chamber during the Sociability period was counterbalanced between trials. Finally, preference for social novelty was assayed by introducing a second stranger mouse (Mouse 2) into the previously the empty wire cup. Time spent in each chamber as well as time spent interacting with either Mouse 1 or Mouse 2 was recorded using the automated AnyMaze software by independent observers. Lactobacillus reuteri MM4-1A (ATCC-PTA-6475) and Lactobacillus johnsonii (ATCC 33200) were cultured anaerobically in MRS broth in a 90% N2, 5% CO2, 5% H2 environment. L. reuteri was heat-killed by keeping the bacteria at 80° C. for 20 minutes (Wang et al., 2010). Bacterial viability was assessed by plating and the efficacy of the heat-kill procedure was confirmed by the absence of colony growth following plating. Cultures were centrifuged, washed, and resuspended in anaerobic solution (PBS) and frozen at −80° C. until use. PBS, live or heat-killed L. reuteri were added to the drinking water, which was changed daily to minimize dosage variability. Whereas the experimental group received live bacteria, one control group received identically prepared cultures of heat-killed bacteria. A second group of control mice received water treated with PBS alone. […]
# [1] = mice lacking Cntnap2, L. reuteri in drinking water
substance,measurement,setting,value
Lactobacillus reuteri MM4-1A (ATCC-PTA-6475) [L. reuteri],social behavior abnormalities,"Cntnap2-deficient mice; Cntnap2-deficient mice, L. reuteri treatment",reverses the social behavior abnormalities
same,sociability,Cntnap2-deficient mice; [1],reverses the deficient sociability
same,social novelty,Cntnap2-deficient mice; [1],reverses
same,"sociability (chamber containing a mouse, FIG. 16A)",MRD offspring,preferred the chamber containing a mouse
same,social behavior,MRD offspring,did not change the social behavior
same,"social novelty (chamber containing Mouse 2, FIG. 16B)",MRD offspring,preferred
